Measured values: US4740503A, “Novel 5-fluoro-2'-deoxyuridine derivatives and salts thereof, process for producing the same, and antitumor agents containing the same” (priority 1984, dated 1988)
Several values for one entry are separate records, joined by “and”; a condition that tells them apart may be missing. Equal entries are not always repeated.

Columns and labels:
[1] = Acute toxicity test (single intraperitoneal administration, LD50); settings: mouse, in vivo, ip; single i.p. administration, male ddY mice, death judged on 14th day
Protocol: To ddY mice (male, 5 weeks old, 5 mice per group) was intraperitoneally administered the test compound dissolved or suspended in a physiological saline solution only one time. On the 14th day after the administration, the death of mouse was judged, and the LD50 value was calculated.

Ehrlich carcinoma cells = experiment: Antitumor effect in Ehrlich carcinoma-bearing mice (tumor weight ratio to control); type: in vivo, ddY strain mice; settings: i.p. once daily for 6 days, tumor weight on day 12 vs saline control
Protocol: Eight ddY strain mice (male, 5 weeks old, weight: about 25 g) per group were used, and 5×10^6 Ehrlich carcinoma cells were inoculated subcutaneously into the inguinal region of the mice. The test compound dissolved or suspended in a physiological saline solution was intraperitoneally administered to the mice once daily for 6 days from the day after the inoculation. As the control compound, FudR was used. To the control group was administered only the physiological saline solution.

thymidylate synthetase = settings: in cells, FduMP formed from FudR; cited from earlier work
cells = settings: FduMP per se; cited from earlier work
[2] = cited from earlier work
nucleoside phosphorylase = settings: cited from earlier work
[3] = in vivo; cited from earlier work
[4] = in vitro, compared with 5-Fu; cited from earlier work

## CCCCCCCCC=CCCCCCCCC(=O)OC[C@H]1O[C@@H](n2cc(F)c(=O)[nH]c2=O)C[C@@H]1OP(=O)([O-])OCC[N+](C)(C)C [compound 8]
[1]
  LD50 at 336 h: 300 mg/kg
Ehrlich carcinoma cells; 1 μmole/kg/day
  Effect (T/C (%)): 50%
Ehrlich carcinoma cells; 3 μmole/kg/day
  Effect (T/C (%)): 28%

## 5-Fluoro-2'-deoxy-5'-O-palmitoyl-β-uridine-3'-[2-(2-hydroxyethyldimethylammonio)ethyl]phosphate.hydrate [Test compound 11]
Ehrlich carcinoma cells; 1 μmole/kg/day
  Effect (T/C (%)): 38%
Ehrlich carcinoma cells; 3 μmole/kg/day
  Effect (T/C (%)): 17%

## 5-Fluoro-2'-deoxy-5'-O-palmitoyl-β-uridine-3'-{2-[4-(4-methyl)morpholinio]ethyl}phosphate.hydrate [Test compound 12]
Ehrlich carcinoma cells; 1 μmole/kg/day
  Effect (T/C (%)): 24%
Ehrlich carcinoma cells; 3 μmole/kg/day
  Effect (T/C (%)): 10%

## CCCCCCCCCCCCCCCCCC(=O)O[C@H]1C[C@H](n2cc(F)c(=O)[nH]c2=O)O[C@@H]1COP(=O)([O-])OCC[N+](C)(C)C [Test compound 2]
[1]
  LD50 at 336 h: 188 mg/kg

## 5-Fluoro-2'-deoxy-5'-O-palmitoyl-β-uridine-3'-[2-(1-pyrazolyl)ethyl]phosphate.hydrate [Example 7]
Ehrlich carcinoma cells; 1 μmole/kg/day
  Effect (T/C (%)): 40%
Ehrlich carcinoma cells; 3 μmole/kg/day
  Effect (T/C (%)): 27%

## 5-Fluoro-2'-deoxy-5'-O-hexanoyl-β-uridine-3'-(2-trimethylammonioethyl)phosphate.hydrate [Test compound 9]
Ehrlich carcinoma cells; 3 μmole/kg/day
  Effect (T/C (%)): 38%
Ehrlich carcinoma cells; 10 μmole/kg/day
  Effect (T/C (%)): 21%

## CCCCCCCCCCCCCCCC(=O)O[C@H]1C[C@H](n2cc(F)c(=O)[nH]c2=O)O[C@@H]1COP(=O)([O-])OCC[N+](C)(C)C [compound 1]
[1]
  LD50 at 336 h: 208 mg/kg
Ehrlich carcinoma cells; 3 μmole/kg/day
  Effect (T/C (%)): 47%
Ehrlich carcinoma cells; 10 μmole/kg/day
  Effect (T/C (%)): 19%
Ehrlich carcinoma cells; 30 μmole/kg/day
  Effect (T/C (%)): 15%

## CCCCCCCCCCCCCCCC(=O)OC[C@H]1O[C@@H](n2cc(F)c(=O)[nH]c2=O)C[C@@H]1OP(=O)([O-])OCC[N+](C)(C)CCO [compound 11]
Ehrlich carcinoma cells; 1 μmole/kg/day
  Effect (T/C (%)): 41%
Ehrlich carcinoma cells; 3 μmole/kg/day
  Effect (T/C (%)): 44%
Ehrlich carcinoma cells; 10 μmole/kg/day
  Effect (T/C (%)): 22%

## CCCCCCCCCCCC(=O)OC[C@H]1O[C@@H](n2cc(F)c(=O)[nH]c2=O)C[C@@H]1OP(=O)([O-])OCC[N+](C)(C)C [Test compound 7]
[1]
  LD50 at 336 h: > 300 mg/kg

## CCCCCCCC/C=C\CCCCCCCC(=O)O[C@H]1C[C@H](n2cc(F)c(=O)[nH]c2=O)O[C@@H]1COP(=O)([O-])OCC[N+](C)(C)C [Test compound 3]
[1]
  LD50 at 336 h: 200 mg/kg

## CCCCCC(=O)OC[C@H]1O[C@@H](n2cc(F)c(=O)[nH]c2=O)C[C@@H]1OP(=O)([O-])OCC[N+](C)(C)C [compound 9]
[1]
  LD50 at 336 h: 500 mg/kg
Ehrlich carcinoma cells; 1 μmole/kg/day
  Effect (T/C (%)): 50%
Ehrlich carcinoma cells; 3 μmole/kg/day
  Effect (T/C (%)): 32%

## CCCCCCCCCCCCCCCC(=O)OC[C@H]1O[C@@H](n2cc(F)c(=O)[nH]c2=O)C[C@@H]1OP(=O)([O-])OCC[N+]1(C)CCOCC1 [compound 12]
Ehrlich carcinoma cells; 1 μmole/kg/day
  Effect (T/C (%)): 46%
Ehrlich carcinoma cells; 3 μmole/kg/day
  Effect (T/C (%)): 28%

## CCCCCCCCCCCCCCCC(=O)OC[C@H]1O[C@@H](n2cc(F)c(=O)[nH]c2=O)C[C@@H]1OP(=O)([O-])OCC[n+]1cnc[nH]1 [compound 10]
Ehrlich carcinoma cells; 1 μmole/kg/day
  Effect (T/C (%)): 42%
Ehrlich carcinoma cells; 3 μmole/kg/day
  Effect (T/C (%)): 36%
Ehrlich carcinoma cells; 10 μmole/kg/day
  Effect (T/C (%)): 18%

## 5-Fluoro-2'-deoxy-3'-O-palmitoyl-β-uridine-5'-[2-(4-dimethylaminopyridinio)ethyl]phosphate.hydrate [Test compound 4]
Ehrlich carcinoma cells; 3 μmole/kg/day
  Effect (T/C (%)): 22%
Ehrlich carcinoma cells; 10 μmole/kg/day
  Effect (T/C (%)): 19%

## CCCCCCCCCCCCCCCC(=O)OC[C@H]1O[C@@H](n2cc(F)c(=O)[nH]c2=O)C[C@@H]1OP(=O)([O-])OCC[N+](C)(C)C [Test compound 5]
[1]
  LD50 at 336 h: > 200 mg/kg

## O=c1[nH]c(=O)n([C@H]2C[C@H](O)[C@@H](COP(=O)(O)O)O2)cc1F [FduMP, 5-fluoro-2'-deoxyuridine-5'-monophosphate]
Thymidylate synthetase
  thymidylate synthetase inhibition: inhibits thymidylate synthetase
cells
  uptake by cells: not taken up by cells

## CCCCCCCCCCCCCCCCCC(=O)OC[C@H]1O[C@@H](n2cc(F)c(=O)[nH]c2=O)C[C@@H]1OP(=O)([O-])OCC[N+](C)(C)C [Test compound 6]
[1]
  LD50 at 336 h: 200 mg/kg

## O=c1[nH]c(=O)n([C@H]2C[C@H](O)[C@@H](CO)O2)cc1F [FudR, 5-fluoro-2'-deoxy-β-uridine]
[2]
  clinical toxicity: high toxicity
[2]; compared with 5-Fu
  clinical efficacy: only equivalent in efficacy to 5-Fu
Nucleoside phosphorylase
  cleavage by nucleoside phosphorylase: easily cleaved by nucleoside phosphorylase
[3]
  excretion: rapidly excreted in vivo
  metabolism: metabolized to α-fluoro-β-alanine through 5-Fu
  persistency: poor in persistency
[4]
  cytocidal activity: stronger cytocidal activity than 5-fluorouracil
Ehrlich carcinoma cells; 3 μmole/kg/day
  Effect (T/C (%)): 87%
Ehrlich carcinoma cells; 10 μmole/kg/day
  Effect (T/C (%)): 67% and 77%
Ehrlich carcinoma cells; 30 μmole/kg/day
  Effect (T/C (%)): 42%

## 5-Fluoro-2'-deoxy-5'-O-palmitoyl-β-uridine-3'-[2-(2H-1,2,4-triazol-1-io)ethyl]phosphate.hydrate [Test compound 10]
Ehrlich carcinoma cells; 3 μmole/kg/day
  Effect (T/C (%)): 66%
Ehrlich carcinoma cells; 10 μmole/kg/day
  Effect (T/C (%)): 34%
